Data from patent US20110052674A1, “ANGIOTENSIN II RECEPTOR BLOCKER DERIVATIVES” (MERCK SHARP & DOHME CORP., priority 2008, published 2011).
In brackets after ≈: the same amount, converted by molar mass.

Columns and labels:
[1] = Solubility test in PEG 400/H2O 7/3; type: physicochemical; settings: PEG 400/H2O 7/3, aqueous with cosolvent or surfactant or cyclodextrin, thermodynamic from solid; PEG400/H2O 70:30, 5.0 mg in 1 ml, mixed 1 hour, filtered; read-out: Solubility PEG400/H2O 70:30 (mg/ml) target 5 mg/ml
Experimental: The solubility of the tested compounds in PEG 400/H2O 7/3 was evaluated using a standard curve constructed of six calibration points by plotting the peak areas of the compounds of the invention versus the concentration.
Test solution: 5.0 mg of the nitroderivative were dissolved in 0.7 ml of PEG 400 in a glass volumetric flask and 0.3 ml of water were added. The solution was mixed for 1 hour and filtered through 0.45 μm Acrodisc filter.

[2] = test system: isolated rabbit thoracic aorta preparations; assay: Studies on vascular tone: vasorelaxation in isolated rabbit thoracic aorta preparations; type: cell-based; settings: vasorelaxation of rabbit aortic rings precontracted with noradrenaline 1 μM, functional endothelium; for EC50: Oryctolagus cuniculus, read-out: EC50 (μM) ± sem
Experimental: The ability of ARB nitroderivatives to induce vasorelaxation in comparison to native ARBs, was tested in vitro in isolated rabbit thoracic aorta preparations (Wanstall J. C. et al., Br. J. Pharmacol., 134:463-472, 2001). Male New Zealand rabbits were anaesthetized with thiopental-Na (50 mg/kg, iv), sacrificed by exsanguinations and then the thorax was opened and the aorta dissected. Aortic ring preparations (4 mm in length) were set up in physiological salt solution (PSS) at 37° C. in small organ chambers (5 ml). The composition of PSS was (mM): NaCl 130, NaHCO3 14.9, KH2PO4 1.2, MgSO4 1.2, HEPES 10, CaCl2, ascorbic acid […] and glucose […] (95% O2/5% CO2; pH 7.4). Each ring was mounted under 2 g passive tension. Isometric tension was recorded with a Grass transducer (Grass FT03) attached to a BIOPAC MP150 System. Preparations were allowed to equilibrate for 1 h, and then contracted submaximally with noradrenaline (NA, 1 μM) and, when the contraction was stable, acetylcholine (ACh, 10 μM) was added. A relaxant response to ACh indicated the presence of a functional endothelium. […] When a stable precontraction was reached, a cumulative concentration-response curve to either of the vasorelaxant agents was obtained in the presence of a functional endothelium. Each arterial ring was exposed to only one combination of inhibitor and vasorelaxant. Moreover, the effect of the soluble guanylyl cyclase inhibitor ODQ (1-H-(1,2,4)-oxadiazol(4,3-a)quinoxalin-1-one) on vasorelaxation elicited by the compounds was examined preincubating the aortic rings with ODQ (10 μM) for 20 min.
Responses to relaxing agents are expressed as a percentage of residual contraction and plotted against concentration of test compound. EC50 values (where EC50 is the concentration producing 50% of the maximum relaxation to the test compound) were interpolated from these plots. During the experimental period, the plateau obtained with NA was stable without significant spontaneous loss of contraction in the aortic rings.
Furthermore, in experiments performed in the presence of ODQ (10 μM), the vasorelaxant responses to tested compounds were inhibited.

[3] = test system: spontaneously hypertensive rats (SHRs); assay: Antihypertensive activity in vivo in conscious spontaneously hypertensive rats; parameters: species or system rat; settings: SHR, 10 mpk po single dose, delta vs baseline, telemetry (EXP 3174: tail-cuff method)
Experimental: The ability of the compounds of the invention to decrease blood pressure was evaluated in conscious spontaneously hypertensive rats (SHRs). SHRs (250-300 g) received a single oral dose of EXP 3174 or the corresponding nitroderivative. Systolic blood pressure (SBP) and heart rate were monitored by telemetry for 24 hours after dosing. SBP was evaluated before (baseline) and after (i.e. 6, 24 hours) treatment by oral administration of the compounds. The data were processed both as the absolute value or as a delta between the absolute value and its own baseline.
The Dataquest IV telemetry system (Data Sciences International) was used for measurement of systolic pressure, diastolic pressure, mean arterial pressure, heart rate, and motor activity. The monitoring system consists of a transmitter (radio frequency transducer model TA11PA), receiver panel, consolidation matrix, and personal computer with accompanying software. Before the device was implanted, calibrations were verified to be accurate within ±3 mmHg. Rats were anesthetized with ketamine/xylazine/acepromazine, and the flexible catheter of the transmitter was surgically secured in the abdominal aorta just below the renal arteries. The transmitter was sutured subcutaneously. Rats were housed in individual cages after the operation. Each cage was placed over the receiver panel that was connected to the personal computer for data acquisition. The rats were unrestrained and free to move within their cages. Hemodynamic data were sampled every 2 minutes for 10 seconds.

solubility at 1 h [1]	EC50 [2]	EC50 (μM) ± sem [2]	SMILES	Δ Systolic blood pressure (mmHg) 6 hrs [3]	Δ Systolic blood pressure (mmHg) 24 hrs [3]
5.07 mg/mL (≈ 7.69 mM)			CCCCc1nc(Cl)c(C(=O)NCC(=O)OCc2ccc(CO[N+](=O)[O-])cc2)n1Cc1ccc(-c2ccccc2-c2nnn[nH]2)cc1 [(46), 4-(nitrooxymethyl)benzyl 2-(1-((2′-(2H-tetrazol-5-yl)biphenyl-4-yl)methyl)-2-butyl-4-chloro-1H-imidazole-5-carboxamido)acetate]		
4 mg/mL (≈ 6.24 mM)	23.6 ± 3.9 µM		CCCCc1nc(Cl)c(COC(=O)NCCOC(=O)CCCO[N+](=O)[O-])n1Cc1ccc(-c2ccccc2-c2nnn[nH]2)cc1 [EX. 1, 2-(((1-((2′-(1H-tetrazol-5-yl)biphenyl-4-yl)methyl)-2-butyl-4-chloro-1H-imidazol-5-yl)methoxy)carbonylamino)ethyl 4-(nitrooxy)butanoate]		
> 5 mg/mL	9.2 ± 4.1 µM		CCCCc1nc(Cl)c(COC(=O)NCC(=O)OCCCCO[N+](=O)[O-])n1Cc1ccc(-c2ccccc2-c2nnn[nH]2)cc1 [EX. 3, 4-(nitrooxy)butyl 2-(((1-((2′-(1H-tetrazol-5-yl)biphenyl-4-yl)methyl)-2-butyl-4-chloro-1H-imidazol-5-yl)methoxy)carbonylamino)acetate]		
	46 ± 7.2 µM		CCCCc1nc(Cl)c(COC(=O)N[C@@H](CCCCN)C(=O)OCCCCO[N+](=O)[O-])n1Cc1ccc(-c2ccccc2-c2nnn[nH]2)cc1 [EX. 4, 4-(nitrooxy)butyl 2-(((1-((2′-(1H-tetrazol-5-yl)biphenyl-4-yl)methyl)-2-butyl-4-chloro-1H-imidazol-5-yl)methoxy)carbonylamino)-6-aminohexanoate]		
4.2 mg/mL (≈ 6.87 mM)	9.2 ± 2.5 µM		CCCCc1nc(Cl)c(C(=O)NCC(=O)OCCCCO[N+](=O)[O-])n1Cc1ccc(-c2ccccc2-c2nnn[nH]2)cc1 [EX. 5, 4-(Nitrooxy)butyl 2-(1-((2′-(1H-tetrazol-5-yl)biphenyl-4-yl)methyl)-2-butyl-4-chloro-1H-imidazole-5-carboxamido)acetate]	−7 mmHg	−11 mmHg
> 5 mg/mL	14.2 ± 8 µM		CCCCc1nc(Cl)c(C(=O)N[C@@H](Cc2ccccc2)C(=O)OCCCCO[N+](=O)[O-])n1Cc1ccc(-c2ccccc2-c2nnn[nH]2)cc1 [EX. 6]	−12 mmHg	−13 mmHg
> 5 mg/mL	7.1 ± 1.9 µM		CCCCc1nc(Cl)c(C(=O)N2CCC[C@H]2C(=O)OCCCCO[N+](=O)[O-])n1Cc1ccc(-c2ccccc2-c2nn[nH]n2)cc1 [EX. 7, (S)-4-(nitrooxy)butyl 1-(1-((2′-(2H-tetrazol-5-yl)biphenyl-4-yl)methyl)-2-butyl-4-chloro-1H-imidazole-5-carbonyl)pyrrolidine-2-carboxylate]		
4.6 mg/mL	38.7 ± 5.3 µM		CCCCc1nc(Cl)c(C(=O)NCC(=O)NCCCCO[N+](=O)[O-])n1Cc1ccc(-c2ccccc2-c2nnn[nH]2)cc1 [EX. 11, 4-(2-(1-((2′-(1H-tetrazol-5-yl)biphenyl-4-yl)methyl)-2-butyl-4-chloro-1H-imidazole-5-carboxamido)acetamido)butyl nitrate]	−6 mmHg	−17 mmHg
	30.6 ± 4.7 µM		CCCCc1nc(Cl)c(C(=O)N[C@@H](CCCNC(=N)N)C(=O)OCCCCO[N+](=O)[O-])n1Cc1ccc(-c2ccccc2-c2nn[nH]n2)cc1 [EX. 13, (S)-4-(nitrooxy)butyl 2-(1-((2′-(2H-tetrazol-5-yl)biphenyl-4-yl)methyl)-2-butyl-4-chloro-1H-imidazole-5-carboxamido)-5-guanidinopentanoate]		

More lines, now with the values behind:

SMILES	solubility at 1 h [1]	EC50 [2]	EC50 (μM) ± sem [2]	Δ Systolic blood pressure (mmHg) 6 hrs [3]	Δ Systolic blood pressure (mmHg) 24 hrs [3]
CCCCc1nc(Cl)c(C(=O)N[C@@H](Cc2ccccc2)C(=O)OCCCCC(CO[N+](=O)[O-])O[N+](=O)[O-])n1Cc1ccc(-c2ccccc2-c2nnn[nH]2)cc1 (stereo in doubt) [EX. 9, (S)-(5,6-bis(nitrooxy)hexyl) 2-(1-((2′-(1H-tetrazol-5-yl)biphenyl-4-yl)methyl)-2-butyl-4-chloro-1H-imidazole-5-carboxamido)-3-phenylpropanoate]	4.9 mg/mL (≈ 6.2 mM)	3.4 ± 0.8 µM			
CCOc1nc2cccc(C(=O)O)c2n1Cc1ccc(-c2ccccc2-c2nnn[nH]2)cc1 [Candesartan, reference compound]			no effect		
CCCCc1nc(Cl)c(COC(=O)N[C@H](COC(=O)CCCO[N+](=O)[O-])Cc2ccccc2)n1Cc1ccc(-c2ccccc2-c2nnn[nH]2)cc1 [EX. 2, (S)-2-(((1-((2′-(1H-tetrazol-5-yl)biphenyl-4-yl)methyl)-2-butyl-4-chloro-1H-imidazol-5-yl)methoxy)carbonylamino)-3-phenylpropyl 4-(nitrooxy)butanoate]	> 5 mg/mL	40.1 ± 2.7 µM			
CCCCc1nc(Cl)c(C(=O)N[C@@H](CC(=O)OCCCCO[N+](=O)[O-])C(=O)OCCCCO[N+](=O)[O-])n1Cc1ccc(-c2ccccc2-c2nn[nH]n2)cc1 [EX. 8, (S)-bis(4-(nitrooxy)butyl) 2-(1-((2′-(2H-tetrazol-5-yl)biphenyl-4-yl)methyl)-2-butyl-4-chloro-1H-imidazole-5-carboxamido)succinate]		10.4 ± 2.5 µM			
CCCCc1nc(Cl)c(C(=O)N[C@@H](CCC(=O)OCCCCO[N+](=O)[O-])C(=O)OCCCCO[N+](=O)[O-])n1Cc1ccc(-c2ccccc2-c2nn[nH]n2)cc1 [EX. 10]		5.4 ± 1.8 µM		−6 mmHg	−11 mmHg
CCCCc1nc(Cl)c(C(=O)O)n1Cc1ccc(-c2ccccc2-c2nn[nH]n2)cc1 [EXP 3174, 2-butyl-4-chloro-1-{[2′-(1H-tetrazol-5-yl)biphenyl-4-yl]methyl}-1H-imidazole-5-carboxylic acid, reference compound]			no effect	−5 mmHg	2 mmHg
CCCCc1nc(Cl)c(CO)n1Cc1ccc(-c2ccccc2-c2nn[nH]n2)cc1 [Losartan, reference compound]			no effect		
